Results taken from patent US7803930B2, “Antisense modulation of apolipoprotein B-expression” (Isis Pharmaceuticals, Inc., priority 2002, dated 2010).
In the oligonucleotide strings, read from the 5' end, every base follows the letter of its sugar. An asterisk marks phosphorothioate; unmarked linkages are phosphodiester. Other units and linkages are bracketed, terminal groups are in braces. A string of capitals states the bases alone. e = 2'-O-(2-methoxyethyl) (MOE); [5mC] = 5-methylcytosine; d = 2'-deoxy (DNA)

system: human apolipoprotein B mRNA; assay: Inhibition of human apolipoprotein B mRNA levels in HepG2 cells, quantitative real-time PCR; format: cell-based; details: HepG2 cells treated with 150 nM of compound; averages from two experiments; quantitative real-time PCR
Method: The human hepatoblastoma cell line HepG2 was obtained from the American Type Culture Collection (Manassas, Va.). HepG2 cells were routinely cultured in Eagle's MEM supplemented with 10% fetal calf serum, non-essential amino acids, and 1 mM sodium pyruvate (Gibco/Life Technologies, Gaithersburg, Md.). Cells were routinely passaged by trypsinization and dilution when they reached 90% confluence. Cells were seeded into 96-well plates (Falcon-Primaria #3872) at a density of 7000 cells/well for use in RT-PCR analysis.
When cells reached 80% confluency, they were treated with oligonucleotide. For cells grown in 96-well plates, wells were washed once with 200 μL OPTI-MEM™-1 reduced-serum medium (Gibco BRL) and then treated with 130 μL of OPTI-MEM™-1 containing 3.75 μg/mL LIPOFECTIN™ (Gibco BRL) and the desired concentration of oligonucleotide. After 4-7 hours of treatment, the medium was replaced with fresh medium. Cells were harvested 16-24 hours after oligonucleotide treatment.
Quantitation of apolipoprotein B mRNA levels was determined by real-time quantitative PCR using the ABI PRISM™ 7700 Sequence Detection System (PE-Applied Biosystems, Foster City, Calif.) according to manufacturer's instructions. This is a closed-tube, non-gel-based, fluorescence detection system which allows high-throughput quantitation of polymerase chain reaction (PCR) products in real-time. As opposed to standard PCR, in which amplification products are quantitated after the PCR is completed, products in real-time quantitative PCR are quantitated as they accumulate. This is accomplished by including in the PCR reaction an oligonucleotide probe that anneals specifically between the forward and reverse PCR primers, and contains two fluorescent dyes. A reporter dye (e.g., JOE, FAM, or VIC, obtained from either Operon Technologies Inc., Alameda, Calif. or PE-Applied Biosystems, Foster City, Calif.) is attached to the 5′ end of the probe and a quencher dye (e.g., TAMRA, obtained from either Operon Technologies Inc., Alameda, Calif. or PE-Applied Biosystems, Foster City, Calif.) is attached to the 3′ end of the probe. When the probe and dyes are intact, reporter dye emission is quenched by the proximity of the 3′ quencher dye. During amplification, annealing of the probe to the target sequence creates a substrate that can be cleaved by the 5′-exonuclease activity of Taq polymerase. […] With each cycle, additional reporter dye molecules are cleaved from their respective probes, and the fluorescence intensity is monitored at regular intervals by laser optics built into the ABI PRISM™ 7700 Sequence Detection System. In each assay, a series of parallel reactions containing serial dilutions of mRNA from untreated control samples generates a standard curve that is used to quantitate the percent inhibition after antisense oligonucleotide treatment of test samples.
PCR reagents were obtained from PE-Applied Biosystems, Foster City, Calif. RT-PCR reactions were carried out by adding 25 μL PCR cocktail (1× TAQMAN™ buffer A, 5.5 mM MgCl2, 300 μM each of DATP, dCTP and dGTP, 600 μM of dUTP, 100 nM each of forward primer, reverse primer, and probe, 20 Units RNAse inhibitor, 1.25 Units AMPLITAQ GOLD™, and 12.5 Units MuLV reverse transcriptase) to 96 well plates containing 25 μL total RNA solution. The RT reaction was carried out by incubation for 30 minutes at 48° C. Following a 10 minute incubation at 95° C. to activate the AMPLITAQ GOLD™, 40 cycles of a two-step PCR protocol were carried out: 95° C. for 15 seconds (denaturation) followed by 60° C. for 1.5 minutes (annealing/extension).
Gene target quantities obtained by real time RT-PCR are normalized using either the expression level of GAPDH, a gene whose expression is constant, or by quantifying total RNA using RiboGreen™ (Molecular Probes, Inc. Eugene, Oreg.). GAPDH expression is quantified by real time RT-PCR, by being run simultaneously with the target, multiplexing, or separately. […]

First: 271004 (antisense eG*e[5mC]*eT*e[5mC]*e[5mC]*dT*d[5mC]*dT*d[5mC]*d[5mC]*d[5mC]*dA*dA*dG*dA*eT*eG*e[5mC]*eG*eG) [compound 271004]
Second: 271005 (antisense eG*eG*e[5mC]*eA*e[5mC]*d[5mC]*d[5mC]*dA*dT*d[5mC]*dA*dG*dA*dA*dG*e[5mC]*eA*eG*e[5mC]*eT) [compound 271005]
The “% INHIB (inhibition of human apolipoprotein B mRNA levels)” value of the first is lower: 10% for the first, 32% for the second.

Going from “271006 (antisense eA*eG*eT*e[5mC]*e[5mC]*dG*dG*dA*dA*dT*dG*dA*dT*dG*dA*eT*eG*e[5mC]*e[5mC]*e[5mC]) [compound 271006]” to “271007 (antisense e[5mC]*eT*eG*eA*eG*d[5mC]*dA*dG*d[5mC]*dT*dT*dG*dA*d[5mC]*dT*eG*eG*eT*e[5mC]*eT) [compound 271007]”, the “% INHIB (inhibition of human apolipoprotein B mRNA levels)” value falls from 42% to 26%.

First: 271008 (antisense e[5mC]*e[5mC]*e[5mC]*eG*eG*dT*d[5mC]*dA*dG*d[5mC]*dG*dG*dA*dT*dA*eG*eT*eA*eG*eG) [compound 271008]
Second: 271010 (antisense eT*eG*eT*e[5mC]*eA*d[5mC]*dA*dA*d[5mC]*dT*dT*dA*dG*dG*dT*eG*eG*e[5mC]*e[5mC]*e[5mC]) [compound 271010]
The “% INHIB (inhibition of human apolipoprotein B mRNA levels)” value of the first is lower: 37% for the first, 57% for the second.

First: 271011 (antisense eG*eT*e[5mC]*eT*eG*dG*d[5mC]*dA*dA*dT*d[5mC]*d[5mC]*d[5mC]*dA*dT*eG*eT*eT*e[5mC]*eT) [compound 271011]
Second: 271012 (antisense e[5mC]*e[5mC]*e[5mC]*eA*e[5mC]*dA*dG*dA*d[5mC]*dT*dT*dG*dA*dA*dG*eT*eG*eG*eA*eG) [compound 271012]
The “% INHIB (inhibition of human apolipoprotein B mRNA levels)” value of the first is lower: 51% for the first, 55% for the second.

Going from “271013 (antisense eG*eA*eA*e[5mC]*eT*dG*d[5mC]*d[5mC]*d[5mC]*dA*dT*d[5mC]*dA*dA*dT*e[5mC]*eT*eT*eG*eA) [compound 271013]” to “271014 (antisense e[5mC]*e[5mC]*e[5mC]*eA*eG*dA*dG*dA*dG*dG*d[5mC]*d[5mC]*dA*dA*dG*e[5mC]*eT*e[5mC]*eT*eG) [compound 271014]”, the “% INHIB (inhibition of human apolipoprotein B mRNA levels)” value rises from 19% to 54%.

Compared with “271015 (antisense eT*eG*eT*eG*eT*dT*d[5mC]*d[5mC]*d[5mC]*dT*dG*dA*dA*dG*d[5mC]*eG*eG*e[5mC]*e[5mC]*eA) [compound 271015]”, “271016 (antisense eA*e[5mC]*e[5mC]*e[5mC]*eA*dG*dA*dA*dT*d[5mC]*dA*dT*dG*dG*d[5mC]*e[5mC]*eT*eG*eA*eT) [compound 271016]” is lower in “% INHIB (inhibition of human apolipoprotein B mRNA levels)” value: 43% for the first, 19% for the second.

Compared with “271017 (antisense eG*eG*eT*eG*e[5mC]*d[5mC]*dT*dG*dT*d[5mC]*dT*dG*d[5mC]*dT*d[5mC]*eA*eG*e[5mC]*eT*eG) [compound 271017]”, “271018 (antisense eA*eT*eG*eT*eG*dA*dA*dA*d[5mC]*dT*dT*dG*dT*d[5mC]*dT*e[5mC]*eT*e[5mC]*e[5mC]*e[5mC]) [compound 271018]” is higher in “% INHIB (inhibition of human apolipoprotein B mRNA levels)” value: 30% for the first, 44% for the second.

First: 271019 (antisense eT*eA*eT*eG*eT*d[5mC]*dT*dG*d[5mC]*dA*dG*dT*dT*dG*dA*eG*eA*eT*eA*eG) [compound 271019]
Second: 271020 (antisense eT*eT*eG*eA*eA*dT*d[5mC]*d[5mC]*dA*dG*dG*dA*dT*dG*d[5mC]*eA*eG*eT*eA*e[5mC]) [compound 271020]
The “% INHIB (inhibition of human apolipoprotein B mRNA levels)” value of the first is lower: 15% for the first, 35% for the second.

First: 271021 (antisense eG*eA*eG*eT*e[5mC]*dT*d[5mC]*dT*dG*dA*dG*dT*d[5mC]*dA*d[5mC]*e[5mC]*eT*e[5mC]*eA*e[5mC]) [compound 271021]
Second: 271022 (antisense eG*eA*eT*eA*eG*dA*dA*dT*dA*dT*dT*dG*d[5mC]*dT*d[5mC]*eT*eG*e[5mC]*eA*eA) [compound 271022]
The “% INHIB (inhibition of human apolipoprotein B mRNA levels)” value of the first is lower: 38% for the first, 100% for the second.

Compared with “271023 (antisense e[5mC]*e[5mC]*e[5mC]*eT*eT*dG*d[5mC]*dT*d[5mC]*dT*dA*d[5mC]*d[5mC]*dA*dA*eT*eG*e[5mC]*eT*eT) [compound 271023]”, “271025 (eT*e[5mC]*e[5mC]*eA*eT*dT*d[5mC]*d[5mC]*d[5mC]*dT*dA*dT*dG*dT*d[5mC]*eA*eG*e[5mC]*eA*eT; antisense) [compound 271025]” is lower in “% INHIB (inhibition of human apolipoprotein B mRNA levels)” value: 44% for the first, 16% for the second.

Compared with “271026 (eG*eA*e[5mC]*eT*e[5mC]*d[5mC]*dT*dT*d[5mC]*dA*dG*dA*dG*d[5mC]*d[5mC]*eA*eG*e[5mC]*eG*eG; antisense) [compound 271026]”, “271027 (e[5mC]*e[5mC]*e[5mC]*eA*eT*dG*d[5mC]*dT*d[5mC]*d[5mC]*dG*dT*dT*d[5mC]*dT*e[5mC]*eA*eG*eG*eT; antisense) [compound 271027]” is lower in “% INHIB (inhibition of human apolipoprotein B mRNA levels)” value: 39% for the first, 26% for the second.

First: 271028 (e[5mC]*eG*e[5mC]*eA*eG*dG*dT*d[5mC]*dA*dG*d[5mC]*d[5mC]*dT*dG*dA*e[5mC]*eT*eA*eG*eA; antisense) [compound 271028]
Second: 271030 (e[5mC]*eA*eG*eT*eT*dA*dG*dA*dA*d[5mC]*dA*d[5mC]*dT*dG*dT*eG*eG*e[5mC]*e[5mC]*e[5mC]; antisense) [compound 271030]
The “% INHIB (inhibition of human apolipoprotein B mRNA levels)” value of the first is higher: 98% for the first, 52% for the second.

Compared with “271031 (e[5mC]*eA*eG*eT*eG*dT*dG*dA*dT*dG*dA*d[5mC]*dA*d[5mC]*dT*eT*eG*eA*eT*eT; antisense) [compound 271031]”, “271032 (e[5mC]*eT*eG*eT*eG*dG*d[5mC]*dT*dA*dA*d[5mC]*dT*dT*d[5mC]*dA*eA*eT*e[5mC]*e[5mC]*e[5mC]; antisense) [compound 271032]” is lower in “% INHIB (inhibition of human apolipoprotein B mRNA levels)” value: 49% for the first, 22% for the second.

Going from “271033 (e[5mC]*eA*eG*eT*eA*d[5mC]*dT*dG*dT*dT*dA*dT*dG*dA*d[5mC]*eT*eA*e[5mC]*e[5mC]*e[5mC]; antisense) [compound 271033]” to “271034 (e[5mC]*eA*e[5mC]*eT*eG*dA*dA*dG*dA*d[5mC]*d[5mC]*dG*dT*dG*dT*eG*e[5mC]*eT*e[5mC]*eT; antisense) [compound 271034]”, the “% INHIB (inhibition of human apolipoprotein B mRNA levels)” value rises from 34% to 35%.

Going from “271035 (eT*e[5mC]*eG*eT*eA*d[5mC]*dT*dG*dT*dG*d[5mC]*dT*d[5mC]*d[5mC]*d[5mC]*eA*eG*eA*eG*eG; antisense) [compound 271035]” to “271036 (eA*eA*eG*eA*eG*dG*d[5mC]*d[5mC]*d[5mC]*dT*d[5mC]*dT*dA*dG*d[5mC]*eT*eG*eT*eA*eA; antisense) [compound 271036]”, the “% INHIB (inhibition of human apolipoprotein B mRNA levels)” value rises from 23% to 95%.

Going from “271037 (eA*eA*eG*eA*e[5mC]*d[5mC]*d[5mC]*dA*dG*dA*dA*dT*dG*dA*dA*eT*e[5mC]*e[5mC]*eG*eG; antisense) [compound 271037]” to “271038 (eG*eT*e[5mC]*eT*eA*d[5mC]*d[5mC]*dT*d[5mC]*dA*dA*dA*dG*d[5mC]*dG*eT*eG*e[5mC]*eA*eG; antisense) [compound 271038]”, the “% INHIB (inhibition of human apolipoprotein B mRNA levels)” value rises from 23% to 29%.

same assay, conditions: Table 12; HepG2 cells, 150 nM; averages from two experiments

With “271024 (eG*e[5mC]*eT*e[5mC]*eA*d[5mC]*dT*dG*dT*dT*d[5mC]*dA*dG*d[5mC]*dA*eT*e[5mC]*eT*eG*eG; antisense) [compound 271024]” the “% INHIB” value was 27%.
